Starred links: 1 amine or outer side, 2 acyl side, 3 side chain; linkers in the order of their positions; H or OH if unused. Positions of bridges follow the written chain, without caps; N, C: chain ends. Non-standard residues stand in square brackets, D forms with d. Residues, ends and D or L forms follow the SMILES beside them. *: point of attachment. Phe(3-NHCO(CH2)3SO2NH2) = N[C@@H](Cc1cccc(NC(=O)CCCS(N)(=O)=O)c1)C(=O)O; X23 = NS(=O)(=O)c1cccc(C(=O)Nc2cccc(C[C@H](N[*:1])C(=O)[*:2])c2)c1; X10 = NS(=O)(=O)c1cc(C(=O)Nc2cccc(C[C@H](N[*:1])C(=O)[*:2])c2)cs1; X11 = NS(=O)(=O)c1ccc(C(=O)Nc2cccc(C[C@H](N[*:1])C(=O)[*:2])c2)s1; DOTA = O=C(O)CN1CCN(CC(=O)O)CCN(CC(=O)*)CCN(CC(=O)O)CC1; Phe(3-CF3) = N[C@@H](Cc1cccc(C(F)(F)F)c1)C(=O)O; Phe(4-NH2) = Nc1ccc(C[C@H](N)C(=O)O)cc1; mXylylene = c1cc(C[*:1])cc(C[*:2])c1; X2 = O=C(CN1CCC(N[*:1])CC1)[*:2]; X26 = NS(=O)(=O)c1cccc(C(=O)*)c1; X1 = O=C(CN1CCN([*:1])CC1)[*:2]; X39 = NS(=O)(=O)c1ccc(N*)cc1; X41 = NS(=O)(=O)c1cccc(N*)c1; Dap = NC[C@H](N)C(=O)O

In assay [1] the target is T1, CAIX-expressing human HT-29 colorectal cancer cells (Homo sapiens, UniProt Q16790).
T1 construct: CAIX-expressing human HT-29 colorectal cancer cells; host or cells: HT-29 human colorectal cancer cells
Briefly: FACS binding assay (IC50 determination, competition with tracer 3BP-2776 or 3BP-4149). As to conditions: FACS binding assay, HT-29 cells, competition with tracer 3BP-4149 (3 nM, Cy5-labeled), 4° C., 1 hour; read-out: pIC50 category (activity) (converted). In short, it runs like this: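 HT-29 cells in FACS buffer (PBS, 1% FCS) at 500.000 cells/ml were exposed to compounds competing with a labelled tracer, with biotinylated compounds detected by 1 μg/mL APC-streptavidin for 30 min on ice. APC/Cy5 median fluorescence was read by flow cytometry and IC50 derived by 4PL fit.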
On the technique in general: A flow cytometer gives signals particle by particle.

In assay [2] the target is T2, human carbonic anhydrase IX (hCAIX-Fc) (Homo sapiens, UniProt Q16790).
T2 construct: purchased SinoBliological (Sino Biological) 10107-H02H
Briefly: Surface plasmon resonance assay with hCAIX-Fc. Format: binding. The conditions noted are these: 25° C.; for t1/2 category (activity): SPR dissociation half-life, hCAIX-Fc; for Kd: SPR, hCAIX-Fc captured, read-out: pKD category (activity) (converted). (In general: In SPR one partner is held on a chip, and binding of the other changes the refractive index at the surface.)

As to `CC(C)C[C@@H]1NC(=O)[C@H](Cc2ccc(NC(=O)c3cccc(S(N)(=O)=O)c3)cc2)NC(=O)[C@H](CC(=O)O)NC(=O)[C@H]2CCCN2C(=O)[C@H](CCC(=O)O)NC(=O)[C@@H](NC(=O)[C@H](Cc2ccc(O)cc2)NC(=O)[C@@H](NC(=O)CN2CCC(NC(=O)CN3CCN(CC(=O)O)CCN(CC(=O)O)CCN(CC(=O)O)CC3)CC2)C(C)C)CSCc2cccc(c2)CSC[C@@H](C(N)=O)NC(=O)[C@H](CO)NC(=O)[C@H](Cc2c[nH]c3ccccc23)NC(=O)[C@H]([C@@H](C)O)NC1=O` [3BP-4408] ({DOTA}-[X2]VYCE[dP]D[Phe(4-NH2)](X26)LTWSC-NH2; linker 4-13 via mXylylene), in assay [1], the IC50 was below 10 nM. Moreover, in assay [2], the “t1/2 category (activity)” value is “A (t1/2>15.0 minutes)” and the Kd is below 10 nM.

For the compound `CC(C)C[C@@H]1NC(=O)[C@H](Cc2cccc(NC(=O)c3cccc(S(N)(=O)=O)c3)c2)NC(=O)[C@H](CC(=O)O)NC(=O)[C@H]2CCCN2C(=O)[C@H](CCC(=O)O)NC(=O)[C@@H](NC(=O)[C@H](Cc2ccc(O)cc2)NC(=O)[C@@H](NC(=O)CN2CCC(NC(=O)CN3CCN(CC(=O)O)CCN(CC(=O)O)CCN(CC(=O)O)CC3)CC2)C(C)C)CSCc2cccc(c2)CSC[C@@H](C(N)=O)NC(=O)[C@H](CO)NC(=O)[C@H](Cc2c[nH]c3ccccc23)NC(=O)[C@H]([C@@H](C)O)NC1=O` [3BP-4409] ({DOTA}-[X2]VYCE[dP]D[X23]LTWSC-NH2; linker 4-13 via mXylylene), the IC50 in assay [1] was below 10 nM. Also, in assay [2], the “t1/2 category (activity)” value is on record as “A (t1/2>15.0 minutes)” and the Kd is below 10 nM.

In the case of `CC(C)C[C@@H]1NC(=O)[C@H](Cc2cccc(NC(=O)c3csc(S(N)(=O)=O)c3)c2)NC(=O)[C@H](CC(=O)O)NC(=O)[C@H]2CCCN2C(=O)[C@H](CCC(=O)O)NC(=O)[C@@H](NC(=O)[C@H](Cc2ccc(O)cc2)NC(=O)[C@@H](NC(=O)CN2CCC(NC(=O)CN3CCN(CC(=O)O)CCN(CC(=O)O)CCN(CC(=O)O)CC3)CC2)C(C)C)CSCc2cccc(c2)CSC[C@@H](C(N)=O)NC(=O)[C@H](CO)NC(=O)[C@H](Cc2c[nH]c3ccccc23)NC(=O)[C@H]([C@@H](C)O)NC1=O` [3BP-4412] ({DOTA}-[X2]VYCE[dP]D[X10]LTWSC-NH2; linker 4-13 via mXylylene), the IC50 in assay [1] is below 10 nM. Further, in assay [2], the “t1/2 category (activity)” value is “A (t1/2>15.0 minutes)” and the Kd was below 10 nM.

As to `CC(C)C[C@@H]1NC(=O)[C@H](Cc2cccc(NC(=O)c3ccc(S(N)(=O)=O)s3)c2)NC(=O)[C@H](CC(=O)O)NC(=O)[C@H]2CCCN2C(=O)[C@H](CCC(=O)O)NC(=O)[C@@H](NC(=O)[C@H](Cc2ccc(O)cc2)NC(=O)[C@@H](NC(=O)CN2CCC(NC(=O)CN3CCN(CC(=O)O)CCN(CC(=O)O)CCN(CC(=O)O)CC3)CC2)C(C)C)CSCc2cccc(c2)CSC[C@@H](C(N)=O)NC(=O)[C@H](CO)NC(=O)[C@H](Cc2c[nH]c3ccccc23)NC(=O)[C@H]([C@@H](C)O)NC1=O` [3BP-4413] ({DOTA}-[X2]VYCE[dP]D[X11]LTWSC-NH2; linker 4-13 via mXylylene), the IC50 in assay [1] was below 10 nM. In assay [2], the “t1/2 category (activity)” value is given as “A (t1/2>15.0 minutes)” and the Kd was below 10 nM.

For `CC(C)C[C@@H]1NC(=O)[C@H](Cc2cccc(C(F)(F)F)c2)NC(=O)[C@H](CC(=O)O)NC(=O)[C@H]2CCCN2C(=O)[C@H](CCC(=O)O)NC(=O)[C@@H]2CSCc3cccc(c3)CSC[C@@H](C(N)=O)NC(=O)[C@H](CNC(=O)C[C@H](NC(=O)[C@@H](NC(=O)CN3CCC(NC(=O)CN4CCN(CC(=O)O)CCN(CC(=O)O)CCN(CC(=O)O)CC4)CC3)C(C)C)C(=O)N2)NC(=O)[C@H](Cc2c[nH]c3ccccc23)NC(=O)[C@H]([C@@H](C)O)NC1=O` [3BP-4440] ({DOTA}-[X2]VDCE[dP]D[Phe(3-CF3)]LTW[Dap]C-NH2; lactam 3-12; linker 4-13 via mXylylene), the IC50 in assay [1] is below 10 nM. Further, in assay [2], the “t1/2 category (activity)” value was “B (t1/2 between 5.1 and 15.0 minutes)”; the Kd was below 10 nM.

With `CC(C)C[C@@H]1NC(=O)[C@H](Cc2c[nH]c3ccccc23)NC(=O)[C@H](CCC(=O)Nc2cccc(S(N)(=O)=O)c2)NC(=O)[C@H]2CCCN2C(=O)[C@H](CCC(=O)O)NC(=O)[C@@H](NC(=O)[C@H](Cc2ccc(O)cc2)NC(=O)[C@@H](NC(=O)CN2CCC(NC(=O)CN3CCN(CC(=O)O)CCN(CC(=O)O)CCN(CC(=O)O)CC3)CC2)C(C)C)CSCc2cccc(c2)CSC[C@@H](C(N)=O)NC(=O)[C@H](CO)NC(=O)[C@H](Cc2c[nH]c3ccccc23)NC(=O)[C@H]([C@@H](C)O)NC1=O` [3BP-4441] ({DOTA}-[X2]VYCE[dP]E(X41)WLTWSC-NH2; linker 4-13 via mXylylene), the IC50 in assay [1] was 10 to 79.4 nM. In assay [2], the “t1/2 category (activity)” value was “A (t1/2>15.0 minutes)” and the Kd is below 10 nM.

Take `CC(C)C[C@@H]1NC(=O)[C@H](Cc2c[nH]c3ccccc23)NC(=O)[C@H](CCC(=O)Nc2ccc(S(N)(=O)=O)cc2)NC(=O)[C@H]2CCCN2C(=O)[C@H](CCC(=O)O)NC(=O)[C@@H](NC(=O)[C@H](Cc2ccc(O)cc2)NC(=O)[C@@H](NC(=O)CN2CCC(NC(=O)CN3CCN(CC(=O)O)CCN(CC(=O)O)CCN(CC(=O)O)CC3)CC2)C(C)C)CSCc2cccc(c2)CSC[C@@H](C(N)=O)NC(=O)[C@H](CO)NC(=O)[C@H](Cc2c[nH]c3ccccc23)NC(=O)[C@H]([C@@H](C)O)NC1=O` [3BP-4442] ({DOTA}-[X2]VYCE[dP]E(X39)WLTWSC-NH2; linker 4-13 via mXylylene): the IC50 in assay [1] was 10 to 79.4 nM. In addition, in assay [2], the “t1/2 category (activity)” value is recorded as “A (t1/2>15.0 minutes)” and the Kd was below 10 nM.

Turning to `CC(C)C[C@@H]1NC(=O)[C@H](Cc2cccc(NC(=O)CCCS(N)(=O)=O)c2)NC(=O)[C@H](CC(=O)O)NC(=O)[C@H]2CCCN2C(=O)[C@H](CCC(=O)O)NC(=O)[C@@H]2CSCc3cccc(c3)CSC[C@@H](C(N)=O)NC(=O)[C@H](CNC(=O)C[C@H](NC(=O)[C@@H](NC(=O)CN3CCC(NC(=O)CN4CCN(CC(=O)O)CCN(CC(=O)O)CCN(CC(=O)O)CC4)CC3)C(C)C)C(=O)N2)NC(=O)[C@H](Cc2c[nH]c3ccccc23)NC(=O)[C@H]([C@@H](C)O)NC1=O` [3BP-4445] ({DOTA}-[X2]VDCE[dP]D[Phe(3-NHCO(CH2)3SO2NH2)]LTW[Dap]C-NH2; lactam 3-12; linker 4-13 via mXylylene), in assay [1], the IC50 is below 10 nM. Besides, in assay [2], the “t1/2 category (activity)” value was “A (t1/2>15.0 minutes)” and the Kd is below 10 nM.

`CC(C)C[C@@H]1NC(=O)[C@H](Cc2c[nH]c3ccccc23)NC(=O)[C@H](CC(=O)O)NC(=O)[C@H]2CCCN2C(=O)[C@H](CCC(=O)O)NC(=O)[C@@H](NC(=O)[C@H](Cc2ccc(O)cc2)NC(=O)CN2CCN(C(=O)CN3CCN(CC(=O)O)CCN(CC(=O)O)CCN(CC(=O)O)CC3)CC2)CSCc2cccc(c2)CSC[C@@H](C(N)=O)NC(=O)[C@H](CO)NC(=O)[C@H](Cc2c[nH]c3ccccc23)NC(=O)[C@H]([C@@H](C)O)NC1=O` [3BP-4446] ({DOTA}-[X1]YCE[dP]DWLTWSC-NH2; linker 3-12 via mXylylene): in assay [1], the IC50 was 10 to 79.4 nM. Besides, in assay [2], the “t1/2 category (activity)” value is “C (t1/2 between 2.1 and 5.0 minutes)”; the Kd is below 10 nM.

The values above are taken from US20250339569A1, “CARBONIC ANHYDRASE IX LIGANDS” (priority 2021, published 2025).
